Test results as given in ChEMBL document CHEMBL3044758, “Weed control in sunn hemp and its ability to suppress weed growth” (Crop Prot, 2011).

What was measured:
Digitaria sanguinalis [1] = assay: Herbicidal activity against Digitaria sanguinalis (hairy crabgrass) in sunn hemp assessed as weed control at 0.07 kg/ha post-emergence treatment measured after 2 weeks; type: functional
Crotalaria juncea [2] = assay: Herbicidal tolerance in Crotalaria juncea (sunn hump) performance assessed as plant hight at 0.07 kg/ha post-emergence treatment measured after 2 weeks; type: ADME, organism-based; conditions: in vivo, other, 336 h
Eragrostis cilianensis [3] = assay: Herbicidal activity against Eragrostis cilianensis (stinkgrass) in sunn hemp assessed as weed control at 0.07 kg/ha post-emergence treatment measured after 2 weeks; type: functional
Crotalaria juncea [4] = assay: Herbicidal tolerance in Crotalaria juncea (sunn hump) performance assessed as stand count at 0.07 kg/ha post-emergence treatment measured after 2 weeks; type: ADME, organism-based; conditions: in vivo, other, 336 h
Crotalaria juncea [5] = assay: Herbicidal tolerance in Crotalaria juncea (sunn hump) performance assessed as injury at 0.07 kg/ha post-emergence treatment measured after 2 weeks; type: ADME, organism-based; conditions: in vivo, other, 336 h
Cyperus esculentus [6] = assay: Herbicidal activity against Cyperus esculentus (yellow nutsedge) in sunn hemp assessed as weed control at 0.07 kg/ha post-emergence treatment measured after 2 weeks; type: functional
Crotalaria juncea [7] = assay: Herbicidal tolerance in Crotalaria juncea (sunn hump) performance assessed as injury at 1.12 kg/ha post-emergence treatment measured after 2 weeks; type: ADME, organism-based; conditions: in vivo, other, 336 h
Digitaria sanguinalis [8] = assay: Herbicidal activity against Digitaria sanguinalis (hairy crabgrass) in sunn hemp assessed as weed control at 1.12 kg/ha post-emergence treatment measured after 2 weeks; type: functional
Eragrostis cilianensis [9] = assay: Herbicidal activity against Eragrostis cilianensis (stinkgrass ) in sunn hemp assessed as weed control at 1.12 kg/ha post-emergence treatment measured after 2 weeks; type: functional
Cyperus esculentus [10] = assay: Herbicidal activity against Cyperus esculentus (yellow nutsedge) in sunn hemp assessed as weed control at 1.12 kg/ha post-emergence treatment measured after 2 weeks; type: functional
Crotalaria juncea [11] = assay: Herbicidal tolerance in Crotalaria juncea (sunn hump) performance assessed as stand count at 1.12 kg/ha post-emergence treatment measured after 2 weeks; type: ADME, organism-based; conditions: in vivo, other, 336 h
Crotalaria juncea [12] = assay: Herbicidal tolerance in Crotalaria juncea (sunn hump) performance assessed as plant hight at 1.12 kg/ha post-emergence treatment measured after 2 weeks; type: ADME, organism-based; conditions: in vivo, other, 336 h

Compound	Activity (Digitaria sanguinalis [1]) [%]	Activity (Crotalaria juncea [2]) [cm]	Activity (Eragrostis cilianensis [3]) [%]	Activity (Crotalaria juncea [4])	Activity (Crotalaria juncea [5]) [%]	Activity (Cyperus esculentus [6]) [%]	Activity (Crotalaria juncea [7]) [%]	Activity (Digitaria sanguinalis [8]) [%]	Activity (Eragrostis cilianensis [9]) [%]	Activity (Cyperus esculentus [10]) [%]	Activity (Crotalaria juncea [11])	Activity (Crotalaria juncea [12]) [cm]
Cc1cnc(C2=NC(=O)C(C)(C(C)C)N2)c(C(=O)O)c1 (configuration not stated) [IMAZAPIC]	76	110	93	8.18 /m2	9	91	–	–	–	–	–	–
CCC(CC)Nc1c([N+](=O)[O-])cc(C)c(C)c1[N+](=O)[O-] [PENDIMETHALIN]	–	–	–	–	–	–	7	78	94	63	8.18 /m2	108
